From patent US11633402B2, “RET inhibitor” (CHUGAI SEIYAKU KABUSHIKI KAISHA, priority 2012, dated 2023)
Each block holds one compound with its values, some of them ahead of it.

Key:
[1] = system: cell lines expressing KIF5B-RET; conditions: J Clin Oncol 30, 2012, suppl; Abstract no: 7510; cited from earlier work
[2] = system: KIF5B-RET-expressing cells; conditions: Nature Medicine 2012, 18, p. 378-381; cited from earlier work
[3] = system: Ba/F3 KIF5B-RET cells; assay: Cell growth inhibitory activity against KIF5B-RET-expressing Ba/F3 cells (CellTiter-Glo); format: cell-based; conditions: Mus musculus, BaF3, 48 h; read-out: cell growth inhibition IC50 value, Ba/F3 KIF5B-RET cells
Procedure: An expression plasmid CS-GS104J-M67 (GeneCopoeia) containing KIF5B-RET variant 1 (gene in which a region from the N-terminus of KIF5B CDS to exon 15 was fused with a region from exon 12 of RET CDS to the C-terminus) (SEQ ID NO: 5) was transfected into mouse lymphocytes Ba/F3 (RIK FN Cell Bank) by electroporation. After transfection, the cells were cultured overnight in an RPMI-1640 medium (Sigma-Aldrich) containing 10% FBS (Bovogen Biologicals) and 1 ng/mL recombinant mouse IL-3 (R&D systems). Then, the culture supernatant was replaced with an RPMl-1640 medium containing 10% LBS. The cells were seeded into a 96-well plate by the limiting dilution method. Approximately 2 weeks later, the expression of phosphorylated RET in cells grown in the absence of IL-3 was detected by Western blotting. […]
The Ba/F3 KIF5B-RET cells were seeded into a 96-well plate at a concentration of 2,500 cells/well in an RPMI-1640 medium containing 10% FBS. […] After culture at 37° C. for 2 days in the presence of 5% CO2, a cell counting reagent CellTiter-Glo® Luminescent Cell Viability Assay (Pronged Corporation) was added thereto and stirred, followed by the measurement of luminescence intensity using a luminescence measurement apparatus Envision (PerkinElmer). […] The IC50 value was determined from the obtained values by the logistic regression method.

[4] = system: TT cells (RET C634W); assay: Cell growth inhibitory activity against thyroid medullary cancer cell line TT (CellTiter-Glo); format: cell-based; conditions: Homo sapiens, 120 h, read-out: cell growth inhibition IC50 value, TT cells
Procedure: Cell growth inhibitory activity was evaluated using a thyroid medullary cancer cell line TT (American Type Culture Collection) with a RET kinase active mutation (C634W).
The TT cells were seeded into a 96-well plate at a concentration of 5,000 cells/well in F-12K Nutrient Mixture (Life Technologies Corporation) containing 10% FBS and cultured overnight at 37° C. in the presence of 5% CO2. […] Dimethyl sulfoxide was added as a negative control. After culture at 37° C. for 5 days in the presence of 5% CO2. a cell counting reagent CellTiter-Glo® Luminescent Cell Viability Assay was added thereto and stirred, followed by the measurement of luminescence intensity using a luminescence measurement apparatus Envision. The measurement value in a well supplemented with only a medium was defined as a cell viability of 0%, while the measurement value in a well supplemented with dimethyl sulfoxide was defined as a survival rate of 100%. […] The IC50 value was determined from the obtained values by the logistic regression method.

[5] = system: LC-2/ad cells (CCDC6-RET fusion gene); assay: Cell growth inhibitory activity against non-small cell lung cancer cell line LC-2/ad (CellTiter-Glo); format: cell-based; conditions: Homo sapiens, 120 h, read-out: cell growth inhibition IC50 value, LC-2/ad cells
Procedure: Cell growth inhibitory activity was evaluated using a non-small cell lung cancer cell line LC-tad (R1KEN, J Thorac Oncol. 2012 December, 7 (12), 1872-6) harboring CCDC6-RET fusion gene.
The LC-2/ad cells were seeded into a 96-well plate at a concentration of 2,000 cells/well in a medium of a 1:1 mixture of RPMI-1640 and Ham containing 15% FBS and 25 mM HEPES and cultured overnight at 37° C. in the presence of 5% CO2. […] Dimethyl sulfoxide was added as a negative control. After culture at 37° C. for 5 days in the presence of 5% CO2, a cell counting reagent CellTiter-Glo® Luminescent Cell Viability Assay was added thereto and stirred, followed by the measurement of luminescence intensity using a luminescence measurement apparatus Envision. The measurement value in a well supplemented with only a medium was defined as a cell viability of 0%, while the measurement value in a well supplemented with dimethyl sulfoxide was defined as a cell viability of 100%. […] The IC50 value was determined from the obtained values by the logistic regression method.

[6] = system: LC-2/ad-implanted mouse models; assay: Antitumor activity in xenograft mouse model harboring CCDC6-RET fusion gene; format: in vivo; conditions: SCID mice, oral once a day 20 mg/kg or 60 mg/kg for 14 days
Text: LC-2/ad was subcutaneously implanted to SCID mice and randomized after tumor size reached 200 to 350 mm^3. The administration of the compound was started on the day of randomization. The vehicles used for dissolving the compound were 0.02 N HCl, 10% dimethyl sulfoxide. 10% Cremophor EL, 15% PEG400 and 15% HPCD (2-hydroxypropyl-β-cyclodextrin) (indicated by final concentration).

[7] = biological target: RET (Homo sapiens, UniProt P07949); conditions: high concentration (1,000 nM); Cancer Cell 19(5) 679-690, 2011; cited from earlier work
RET, sequence (P07949 29-1114): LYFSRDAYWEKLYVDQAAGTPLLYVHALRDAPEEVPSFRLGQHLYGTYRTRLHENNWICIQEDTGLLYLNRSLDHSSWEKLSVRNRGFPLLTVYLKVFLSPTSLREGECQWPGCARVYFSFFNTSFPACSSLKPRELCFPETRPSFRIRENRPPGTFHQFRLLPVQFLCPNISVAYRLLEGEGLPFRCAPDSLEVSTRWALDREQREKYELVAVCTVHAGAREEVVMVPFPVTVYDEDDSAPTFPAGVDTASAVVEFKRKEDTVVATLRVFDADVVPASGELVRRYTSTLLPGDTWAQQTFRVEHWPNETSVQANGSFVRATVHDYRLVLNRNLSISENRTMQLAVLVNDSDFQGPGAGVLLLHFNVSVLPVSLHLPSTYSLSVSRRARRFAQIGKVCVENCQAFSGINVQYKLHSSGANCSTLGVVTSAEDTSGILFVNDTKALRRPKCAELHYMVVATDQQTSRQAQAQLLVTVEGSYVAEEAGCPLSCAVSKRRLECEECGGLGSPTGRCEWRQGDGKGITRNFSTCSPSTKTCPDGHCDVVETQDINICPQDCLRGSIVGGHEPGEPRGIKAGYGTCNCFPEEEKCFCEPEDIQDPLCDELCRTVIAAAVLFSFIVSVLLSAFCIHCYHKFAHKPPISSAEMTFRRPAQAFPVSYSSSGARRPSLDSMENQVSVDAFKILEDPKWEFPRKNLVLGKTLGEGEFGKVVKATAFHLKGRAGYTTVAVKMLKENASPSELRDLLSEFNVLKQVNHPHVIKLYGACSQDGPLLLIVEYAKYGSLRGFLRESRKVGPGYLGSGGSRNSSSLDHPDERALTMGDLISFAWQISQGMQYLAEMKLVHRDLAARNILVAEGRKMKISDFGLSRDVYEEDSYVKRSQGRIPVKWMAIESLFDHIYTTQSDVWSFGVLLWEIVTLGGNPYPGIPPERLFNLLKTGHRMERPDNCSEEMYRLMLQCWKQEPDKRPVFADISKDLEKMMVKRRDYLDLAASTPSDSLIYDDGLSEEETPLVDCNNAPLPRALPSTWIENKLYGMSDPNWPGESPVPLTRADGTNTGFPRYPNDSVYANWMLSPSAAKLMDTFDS

SMILES: COc1cc2nccc(Oc3ccc(NC(=O)C4(C(=O)Nc5ccc(F)cc5)CC4)cc3)c2cc1OC [XL184]
- cell growth inhibitory effect against cell lines expressing KIF5B-RET [1]: cell growth inhibitory effect

SMILES: CNC(=O)c1cc(Oc2ccc(NC(=O)Nc3ccc(Cl)c(C(F)(F)F)c3)cc2)ccn1 [sorafenih]
- cell growth inhibitory effect against cell lines expressing KIF5B-RET [1]: cell growth inhibitory effect

SMILES: C[C@@H](Oc1cc(-c2cnn(C3CCNCC3)c2)cnc1N)c1c(Cl)ccc(F)c1Cl [crizotinih]
- cell growth inhibitory activity against KIF5B-RET-expressing cells [2]: no cell growth inhibitory activity

- IC50 [3]: 86 nM
- IC50 [4]: 190 nM
- IC50 [5]: 190 nM
SMILES: CCc1cc2c(cc1N1CCC(N3CCOCC3)CC1)C(C)(C)c1[nH]c3cc(C#N)ccc3c1C2=O [compound 1, 9-ethyl-6,6-dimethyl-8-(4-morpholin-4-yl-piperidin-1-yl)-11-oxo-6,11-dihydro-5H-benzo[b]carbazole-3-carbonitrile]
- antitumor activity (tumor growth) ([6]; LC-2/ad subcutaneous): dose-dependent tumor growth inhibitory effect and tumor regression
- body weight loss [6]: significant body weight loss of a mouse was not observed

SMILES: CCc1cc2c(cc1N1CCC(N3CCOCC3)CC1)C(C)(C)c1[nH]c3cc(C#N)ccc3c1C2=O [drawing 3]
- kinase inhibition in Ambit Kinase Screening test [7]: inhibits many kinases including RET
